Series [1] has as its system Mus musculus. The series can be described thus: Anticonvulsant activity in ip dosed albino mouse assessed as protection against scPTZ-induced seizures after 30 mins. Type of series: functional. The following applies: 0.5 h.
The subject of series [2] is Mus musculus. The series can be described thus: Anticonvulsant activity in ip dosed albino mouse assessed as protection against MES-induced seizures after 30 mins. Type of series: functional. The following applies: 0.5 h.
In series [3] the test system is Mus musculus. The series can be described thus: Anticonvulsant activity in ip dosed albino mouse assessed as protection against MES-induced seizures after 4 hrs. The class given is functional.
Series [4] has as its system Mus musculus. Nature of the series: Anticonvulsant activity in ip dosed albino mouse assessed as protection against scPTZ-induced seizures after 4 hrs. The class given is functional.
Series [5] can be described thus: Neurotoxicity in ip dosed albino mouse assessed as inability to maintain equilibrium on rotarod after 30 mins by rotarod test. Type of series: toxicity, organism-based. The following applies: in vivo.

Activity calls are given as the source filed them. The calls are words filed in the database; no cut-off is given here.

What is called ED50 is the dose at which the effect has come halfway, by size or by number of responders. Consider `Cc1nn(-c2ccccc2)c(Cl)c1/C=N/NC(=O)c1ccc(Cl)cc1Cl`, for which the ED50 in the series with Mus musculus [1] and in the series on Mus musculus [2] was 300 mg/kg throughout. The ED50 entry in the series on Mus musculus [3] and in the series on Mus musculus [4] was “inactive” each time.
Take `O=C1NC(=O)C(c2ccccc2)(c2ccccc2)N1` [PHENYTOIN]: the ED50 in the series with Mus musculus [2] and in the series with Mus musculus [3] was 30 mg/kg each time.
Turning to `Cc1nn(-c2ccccc2)c(Cl)c1/C=N/NC(=O)c1ccc(F)cc1`, the ED50 in the series on Mus musculus [1], with Mus musculus [2], with Mus musculus [3] and in the series on Mus musculus [4] was 100 mg/kg throughout.
Regarding `Cc1nn(-c2ccccc2)c(Cl)c1/C=N/NC(=O)c1ccc([N+](=O)[O-])cc1`, the ED50 with Mus musculus [1] came out at 300 mg/kg; with Mus musculus [2], 100 mg/kg; in the series on Mus musculus [3], 300 mg/kg. The ED50 entry with Mus musculus [4] is “inactive”.
One may read the TD50 as the 50% point of the dose-response relation for the toxic effect studied. Regarding `Cc1nn(-c2ccccc2)c(Cl)c1/C=N/NC(=O)COc1ccccc1`, the TD50 at 0.5 h in series [5] worked out at 300 mg/kg.
Regarding `Cc1nn(-c2ccccc2)c(Cl)c1/C=N/NC(=O)c1ccccc1`, in series [5], the TD50 at 0.5 h was found to be 100 mg/kg.
With `Cc1ccc(C(=O)N/N=C/c2c(C)nn(-c3ccccc3)c2Cl)cc1`, in series [5], the TD50 at 0.5 h was determined as 100 mg/kg.
For the compound `Cc1nn(-c2ccccc2)c(Cl)c1/C=N/NC(=O)Cc1ccc(Cl)cc1`, the ED50 in the series on Mus musculus [1] came out at 100 mg/kg; with Mus musculus [2], 100 mg/kg; with Mus musculus [3] it was 300 mg/kg; in the series with Mus musculus [4] it was 300 mg/kg. Moreover, the TD50 at 0.5 h in series [5] came to 300 mg/kg.
Consider `Cc1nn(-c2ccccc2)c(Cl)c1/C=N/NC(=O)c1ccc(Cl)cc1`, for which the ED50 in the series on Mus musculus [1] came out at 100 mg/kg; in the series with Mus musculus [2], 100 mg/kg; in the series with Mus musculus [3] it was 300 mg/kg; with Mus musculus [4] it was 100 mg/kg. In series [5], the TD50 at 0.5 h stood at 300 mg/kg.
With `CCCC(CCC)C(=O)[O-].[Na+]` [VALPROATE SODIUM], in the series with Mus musculus [1], the ED50 turned out to be 300 mg/kg. Moreover, in the series on Mus musculus [4], the ED50 entry was “inactive”.
Regarding `Cc1nn(-c2ccccc2)c(Cl)c1/C=N/NC(=O)Cc1cccc2ccccc12`, the figures for the ED50 in the series with Mus musculus [1], in the series on Mus musculus [2] and with Mus musculus [3] were 300 mg/kg, 100 mg/kg and 100 mg/kg, respectively. Besides, the ED50 result with Mus musculus [4] is “inactive”.

Values taken from ChEMBL document CHEMBL1240429, “N'-[(5-chloro-3-methyl-1-phenyl-1H-pyrazol-4-yl)methylene] 2/4-substituted hydrazides: synthesis and anticonvulsant activity” (Eur J Med Chem, 2010).
